Laboratory results taken from US20260193264A1, “BENZOYPARAZINE PYRAZINES AND THEIR USES” (FOGHORN THERAPEUTICS INC., priority 2022, published 2026).

Columns and labels:
[1] = biological target: T1, HiBit-BRG1 fusion protein in stable HeLa cell line expressing HiBit-BRG1 and LgBit (Homo sapiens, UniProt P51532); assay: HiBiT-BRG1 cell-based degradation assay (Nano-Glo HiBiT, 24 h); settings: HeLa HiBit-BRG1/LgBit cells; for Dmax: top dose 30 μM, read-out: BRG1 HiBit Degradation Maximum (%); for DC50: read-out: BRMG1 HiBit Degradation IC50
T1 construct: expressed in transfected cells
T1 sequence (P51532 whole entry, the tested form may be a part): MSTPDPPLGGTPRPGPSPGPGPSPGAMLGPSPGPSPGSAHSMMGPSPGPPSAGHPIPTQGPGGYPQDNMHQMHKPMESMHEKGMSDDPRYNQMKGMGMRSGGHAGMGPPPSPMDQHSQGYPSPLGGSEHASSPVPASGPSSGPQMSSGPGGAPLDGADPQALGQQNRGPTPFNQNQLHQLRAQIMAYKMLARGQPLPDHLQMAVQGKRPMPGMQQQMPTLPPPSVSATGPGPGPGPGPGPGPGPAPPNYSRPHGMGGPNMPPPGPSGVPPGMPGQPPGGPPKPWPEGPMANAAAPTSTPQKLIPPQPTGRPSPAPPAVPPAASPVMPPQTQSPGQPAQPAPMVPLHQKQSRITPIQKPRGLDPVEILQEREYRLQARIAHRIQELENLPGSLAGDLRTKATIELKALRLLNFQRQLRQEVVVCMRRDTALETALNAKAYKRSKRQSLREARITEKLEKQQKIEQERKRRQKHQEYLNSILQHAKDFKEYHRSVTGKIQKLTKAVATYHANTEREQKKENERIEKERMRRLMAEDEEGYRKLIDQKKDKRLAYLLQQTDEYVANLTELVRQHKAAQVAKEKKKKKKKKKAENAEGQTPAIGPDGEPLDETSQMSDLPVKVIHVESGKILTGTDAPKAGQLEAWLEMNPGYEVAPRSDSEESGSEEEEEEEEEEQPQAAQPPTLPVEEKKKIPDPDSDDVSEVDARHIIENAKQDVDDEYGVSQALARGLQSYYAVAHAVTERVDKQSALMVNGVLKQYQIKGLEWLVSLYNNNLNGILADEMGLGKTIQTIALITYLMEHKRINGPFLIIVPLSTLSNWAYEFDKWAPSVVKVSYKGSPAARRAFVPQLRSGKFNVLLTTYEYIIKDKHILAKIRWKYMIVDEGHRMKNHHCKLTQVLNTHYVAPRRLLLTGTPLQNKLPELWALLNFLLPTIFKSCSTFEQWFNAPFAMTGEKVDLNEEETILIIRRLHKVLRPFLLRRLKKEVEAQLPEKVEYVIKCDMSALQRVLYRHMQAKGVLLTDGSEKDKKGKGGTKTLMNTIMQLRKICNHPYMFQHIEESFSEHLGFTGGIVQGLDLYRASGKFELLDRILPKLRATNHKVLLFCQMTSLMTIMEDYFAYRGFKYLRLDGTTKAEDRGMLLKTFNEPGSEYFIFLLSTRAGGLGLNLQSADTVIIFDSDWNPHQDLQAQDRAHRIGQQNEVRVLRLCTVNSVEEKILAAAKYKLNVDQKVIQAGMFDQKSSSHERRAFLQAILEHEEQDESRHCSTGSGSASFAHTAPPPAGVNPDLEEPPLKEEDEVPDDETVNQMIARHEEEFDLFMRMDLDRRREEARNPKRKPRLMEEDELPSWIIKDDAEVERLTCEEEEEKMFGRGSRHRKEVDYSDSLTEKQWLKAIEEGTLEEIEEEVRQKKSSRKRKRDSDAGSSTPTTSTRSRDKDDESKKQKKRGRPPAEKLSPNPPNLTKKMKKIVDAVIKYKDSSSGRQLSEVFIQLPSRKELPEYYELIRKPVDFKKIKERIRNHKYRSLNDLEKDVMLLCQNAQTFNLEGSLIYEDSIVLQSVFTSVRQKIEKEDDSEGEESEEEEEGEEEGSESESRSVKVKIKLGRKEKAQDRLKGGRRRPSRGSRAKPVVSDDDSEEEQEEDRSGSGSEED
Method in brief: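 Stable HeLa line co-expressing HiBiT-BRG1 and LgBiT, compound-treated 24 h; luminescence read after Nano-Glo HiBiT lytic reagent. % degradation normalised between DMSO (high control) and 2 μM reference BRM/BRG1 degrader (low control).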

[2] = biological target: T2, HiBiT-BRM fusion protein in stable HeLa cell line (Homo sapiens, UniProt P51531); assay: HiBiT-BRM cell-based degradation assay (Nano-Glo HiBiT Lytic Detection, 24 h); set-up: DC50: scale not given here; settings: HeLa HiBiT-BRM cells; for DC50: read-out: BRM HiBit Degradation IC50; for BRM HiBit Degradation Maximum (%): top dose 30 μM
T2 construct: expressed in transfected cells
T2 sequence (P51531 whole entry, the tested form may be a part): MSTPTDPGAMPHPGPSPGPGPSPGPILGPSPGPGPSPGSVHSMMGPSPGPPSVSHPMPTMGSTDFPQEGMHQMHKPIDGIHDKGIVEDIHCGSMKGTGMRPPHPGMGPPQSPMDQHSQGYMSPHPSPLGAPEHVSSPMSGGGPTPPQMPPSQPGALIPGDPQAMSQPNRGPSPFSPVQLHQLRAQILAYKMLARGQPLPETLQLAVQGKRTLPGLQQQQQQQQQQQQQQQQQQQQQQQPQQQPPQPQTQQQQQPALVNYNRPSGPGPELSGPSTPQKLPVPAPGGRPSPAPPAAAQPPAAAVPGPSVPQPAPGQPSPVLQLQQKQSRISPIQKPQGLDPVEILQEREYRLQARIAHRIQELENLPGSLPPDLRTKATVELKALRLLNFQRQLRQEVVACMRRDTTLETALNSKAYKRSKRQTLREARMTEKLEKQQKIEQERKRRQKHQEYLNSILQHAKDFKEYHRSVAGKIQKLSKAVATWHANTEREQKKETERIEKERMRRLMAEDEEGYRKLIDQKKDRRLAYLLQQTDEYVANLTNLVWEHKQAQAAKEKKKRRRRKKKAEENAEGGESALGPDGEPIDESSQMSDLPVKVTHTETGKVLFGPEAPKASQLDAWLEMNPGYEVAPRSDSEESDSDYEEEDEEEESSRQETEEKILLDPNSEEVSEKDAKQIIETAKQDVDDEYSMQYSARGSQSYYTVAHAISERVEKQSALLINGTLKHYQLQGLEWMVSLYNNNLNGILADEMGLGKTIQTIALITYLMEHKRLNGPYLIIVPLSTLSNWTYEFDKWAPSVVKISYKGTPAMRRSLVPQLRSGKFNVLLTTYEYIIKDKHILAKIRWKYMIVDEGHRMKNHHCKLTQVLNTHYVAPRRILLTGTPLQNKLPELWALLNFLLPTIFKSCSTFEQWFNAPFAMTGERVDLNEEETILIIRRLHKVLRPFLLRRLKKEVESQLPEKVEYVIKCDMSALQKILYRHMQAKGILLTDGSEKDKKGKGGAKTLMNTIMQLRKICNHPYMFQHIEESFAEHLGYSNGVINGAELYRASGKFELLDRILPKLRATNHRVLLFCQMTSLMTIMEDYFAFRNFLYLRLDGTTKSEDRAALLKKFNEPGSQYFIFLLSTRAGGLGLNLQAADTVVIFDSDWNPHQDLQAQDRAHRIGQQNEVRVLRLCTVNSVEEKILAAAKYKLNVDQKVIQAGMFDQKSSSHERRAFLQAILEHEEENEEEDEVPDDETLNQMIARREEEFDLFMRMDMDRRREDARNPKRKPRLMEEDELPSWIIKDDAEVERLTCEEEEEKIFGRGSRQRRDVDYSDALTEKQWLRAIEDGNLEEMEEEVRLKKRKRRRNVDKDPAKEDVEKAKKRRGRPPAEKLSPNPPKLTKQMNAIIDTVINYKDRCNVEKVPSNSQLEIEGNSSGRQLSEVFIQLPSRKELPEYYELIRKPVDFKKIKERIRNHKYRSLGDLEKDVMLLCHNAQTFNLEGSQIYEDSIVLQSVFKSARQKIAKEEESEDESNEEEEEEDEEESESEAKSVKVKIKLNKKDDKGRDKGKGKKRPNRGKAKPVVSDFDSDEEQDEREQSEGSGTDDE
Method in brief: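 Luminescence from HiBiT/LgBiT complementation after lysis reports remaining HiBiT-BRM in stable HeLa cells exposed to compound for 24 h. Dosing used 3-fold serial dilutions, 10 points, 30 μM top final concentration. DMSO and a 2 μM BRM/BRG1 degrader standard defined 0% and 100% degradation.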

SMILES | Dmax [1] | DC50 [2] | BRM HiBit Degradation Maximum (%) [2] | DC50 [1]
C#Cc1ccc(CNC(=O)[C@@H]2C[C@@H](O)CN2C(=O)[C@H](C(C)C)n2cc(N3CC4(CN(c5ccc6cc(-c7ccccc7O)nnc6c5)C4)C3)nn2)c(OC)c1 [Compound 238, (2S,4R)-N-(4-ethynyl-2-methoxybenzyl)-4-hydroxy-1-((S)-2-(4-(6-(3-(2-hydroxyphenyl)cinnolin-7-yl)-2,6-diazaspiro[3.3]heptan-2-yl)-1H-1,2,3-triazol-1-yl)-3-methylbutanoyl)pyrrolidine-2-carboxamide] | < 50% | < 10 nM | A (“A” indicates maximum degradation ≥75%) | –
C#Cc1cc2cc(-c3ccccc3O)nnc2cc1N1CC2(CN(c3cc([C@H](C(=O)N4C[C@H](O)C[C@H]4C(=O)N[C@@H](C)c4ccc(-c5scnc5C)cc4)C(C)C)on3)C2)C1 [Compound 239, (2S,4R)-1-((R)-2-(3-(6-(6-ethynyl-3-(2-hydroxyphenyl)cinnolin-7-yl)-2,6-diazaspiro[3.3]heptan-2-yl)isoxazol-5-yl)-3-methylbutanoyl)-4-hydroxy-N-((S)-1-(4-(4-methylthiazol-5-yl)phenyl)ethyl)pyrrolidine-2-carboxamide] | > 50% | < 10 nM | A (“A” indicates maximum degradation ≥75%) | > 10 nM
C#Cc1cc(N2CC3(C2)CN(c2cc([C@H](C(=O)N4C[C@H](O)C[C@H]4C(=O)N[C@@H](C)c4ccc(-c5scnc5C)cc4)C(C)C)on2)C3)cc2nnc(-c3ccccc3O)cc12 [Compound 240, (2S,4R)-1-((R)-2-(3-(6-(5-ethynyl-3-(2-hydroxyphenyl)cinnolin-7-yl)-2,6-diazaspiro[3.3]heptan-2-yl)isoxazol-5-yl)-3-methylbutanoyl)-4-hydroxy-N-((S)-1-(4-(4-methylthiazol-5-yl)phenyl)ethyl)pyrrolidine-2-carboxamide] | < 50% | < 10 nM | A (“A” indicates maximum degradation ≥75%) | –
C#Cc1cc2nnc(-c3ccccc3O)cc2cc1N1CC2(CN(c3cc([C@H](C(=O)N4C[C@H](O)C[C@H]4C(=O)N[C@@H](C)c4ccc(-c5scnc5C)cc4)C(C)C)on3)C2)C1 [Compound 241, (2S,4R)-1-((R)-2-(3-(6-(7-ethynyl-3-(2-hydroxyphenyl)cinnolin-6-yl)-2,6-diazaspiro[3.3]heptan-2-yl)isoxazol-5-yl)-3-methylbutanoyl)-4-hydroxy-N-((S)-1-(4-(4-methylthiazol-5-yl)phenyl)ethyl)pyrrolidine-2-carboxamide] | > 75% | < 10 nM | A (“A” indicates maximum degradation ≥75%) | < 10 nM
C#Cc1ccc(CNC(=O)[C@@H]2C[C@@H](O)CN2C(=O)[C@H](C(C)C)n2cc(N3CC4(CN(c5ccc6cc(-c7ccccc7O)nnc6c5)C4)C3)nn2)c(OCCCOC)c1 [Compound 242, (2S,4R)-N-(4-ethynyl-2-(3-methoxypropoxy)benzyl)-4-hydroxy-1-((S)-2-(4-(6-(3-(2-hydroxyphenyl)cinnolin-7-yl)-2,6-diazaspiro[3.3]heptan-2-yl)-1H-1,2,3-triazol-1-yl)-3-methylbutanoyl)pyrrolidine-2-carboxamide] | > 50% | < 10 nM | A (“A” indicates maximum degradation ≥75%) | < 10 nM
Cc1ncsc1-c1ccc([C@H](C)NC(=O)[C@@H]2C[C@@H](O)CN2C(=O)[C@@H](c2cc(-c3cnc(N4CC5(CN(c6ccc7nnc(-c8ccccc8O)cc7c6)C5)C4)nc3)no2)C(C)C)cc1 [Compound 243, (2S,4R)-4-hydroxy-1-((R)-2-(3-(2-(6-(3-(2-hydroxyphenyl)cinnolin-6-yl)-2,6-diazaspiro[3.3]heptan-2-yl)pyrimidin-5-yl)isoxazol-5-yl)-3-methylbutanoyl)-N-((S)-1-(4-(4-methylthiazol-5-yl)phenyl)ethyl)pyrrolidine-2-carboxamide] | > 75% | < 10 nM | A (“A” indicates maximum degradation ≥75%) | < 10 nM
Cc1ncsc1-c1ccc([C@H](C)NC(=O)[C@@H]2C[C@@H](O)CN2C(=O)[C@@H](c2cc(N3CCC(N4CC5(CN(Cc6ccc7cc(-c8ccccc8O)nnc7c6)C5)C4)CC3)no2)C(C)C)cc1 [Compound 244, (2S,4R)-4-hydroxy-1-((R)-2-(3-(4-(6-((3-(2-hydroxyphenyl)cinnolin-7-yl)methyl)-2,6-diazaspiro[3.3]heptan-2-yl)piperidin-1-yl)isoxazol-5-yl)-3-methylbutanoyl)-N-((S)-1-(4-(4-methylthiazol-5-yl)phenyl)ethyl)pyrrolidine-2-carboxamide] | < 50% | > 100 nM | B (“B” indicates maximum degradation ≥50%) | –
Cc1ncsc1-c1ccc([C@H](C)NC(=O)[C@@H]2C[C@@H](O)CN2C(=O)[C@@H](c2cc(N3CC4(CN(Cc5ccc6nnc(-c7ccccc7O)cc6c5)C4)C3)no2)C(C)C)cc1 [Compound 245, (2S,4R)-4-hydroxy-1-((R)-2-(3-(6-((3-(2-hydroxyphenyl)cinnolin-6-yl)methyl)-2,6-diazaspiro[3.3]heptan-2-yl)isoxazol-5-yl)-3-methylbutanoyl)-N-((S)-1-(4-(4-methylthiazol-5-yl)phenyl)ethyl)pyrrolidine-2-carboxamide] | < 50% | > 10 nM | B (“B” indicates maximum degradation ≥50%) | –
Cc1ncsc1-c1ccc([C@H](C)NC(=O)[C@@H]2C[C@@H](O)CN2C(=O)[C@@H](c2cc(N3CC4(CN(c5ccc6cc(-c7cccc(F)c7O)nnc6c5)C4)C3)no2)C(C)C)cc1 [Compound 246, (2S,4R)-1-((R)-2-(3-(6-(3-(3-fluoro-2-hydroxyphenyl)cinnolin-7-yl)-2,6-diazaspiro[3.3]heptan-2-yl)isoxazol-5-yl)-3-methylbutanoyl)-4-hydroxy-N-((S)-1-(4-(4-methylthiazol-5-yl)phenyl)ethyl)pyrrolidine-2-carboxamide] | < 50% | < 10 nM | A (“A” indicates maximum degradation ≥75%) | –
Cc1ncsc1-c1ccc([C@H](C)NC(=O)[C@@H]2C[C@@H](O)CN2C(=O)C(C(C)C)n2cc(N3CCN(CC4CCN(c5ccc6cc(-c7ccccc7O)nnc6c5)CC4)CC3)nn2)cc1 (stereo partly drawn) [Compound 247, (2S,4R)-4-hydroxy-1-(2-(4-(4-((1-(3-(2-hydroxyphenyl)cinnolin-7-yl)piperidin-4-yl)methyl)piperazin-1-yl)-1H-1,2,3-triazol-1-yl)-3-methylbutanoyl)-N-((S)-1-(4-(4-methylthiazol-5-yl)phenyl)ethyl)pyrrolidine-2-carboxamide] | > 75% | < 10 nM | A (“A” indicates maximum degradation ≥75%) | < 10 nM
Cc1ncsc1-c1ccc([C@H](C)NC(=O)[C@@H]2C[C@@H](O)CN2C(=O)C(C(C)C)n2cc(N3CCC4CCN(c5ccc6cc(-c7ccccc7O)nnc6c5)C4C3)nn2)cc1 (stereo partly drawn) [Compound 248, (2S,4R)-4-hydroxy-1-(2-(4-(1-(3-(2-hydroxyphenyl)cinnolin-7-yl)octahydro-6H-pyrrolo[2,3-c]pyridin-6-yl)-1H-1,2,3-triazol-1-yl)-3-methylbutanoyl)-N-((S)-1-(4-(4-methylthiazol-5-yl)phenyl)ethyl)pyrrolidine-2-carboxamide] | > 75% | < 10 nM | A (“A” indicates maximum degradation ≥75%) | > 10 nM
Cc1ncsc1-c1ccc([C@H](C)NC(=O)[C@@H]2C[C@@H](O)CN2C(=O)C(C(C)C)n2cc(N3CC4CCN(c5ccc6cc(-c7ccccc7O)nnc6c5)CC43)nn2)cc1 (stereo partly drawn) [Compound 249, (2S,4R)-4-hydroxy-1-(2-(4-(3-(3-(2-hydroxyphenyl)cinnolin-7-yl)-3,8-diazabicyclo[4.2.0]octan-8-yl)-1H-1,2,3-triazol-1-yl)-3-methylbutanoyl)-N-((S)-1-(4-(4-methylthiazol-5-yl)phenyl)ethyl)pyrrolidine-2-carboxamide] | > 75% | > 10 nM | A (“A” indicates maximum degradation ≥75%) | > 100 nM
Cc1ncsc1-c1ccc([C@H](C)NC(=O)[C@@H]2C[C@@H](O)CN2C(=O)C(C(C)C)n2cc(N3CC4CN(c5ccc6cc(-c7ccccc7O)nnc6c5)CCC43)nn2)cc1 (stereo partly drawn) [Compound 250, (2S,4R)-4-hydroxy-1-(2-(4-(3-(3-(2-hydroxyphenyl)cinnolin-7-yl)-3,7-diazabicyclo[4.2.0]octan-7-yl)-1H-1,2,3-triazol-1-yl)-3-methylbutanoyl)-N-((S)-1-(4-(4-methylthiazol-5-yl)phenyl)ethyl)pyrrolidine-2-carboxamide] | > 75% | < 10 nM | A (“A” indicates maximum degradation ≥75%) | < 10 nM
Cc1ncsc1-c1ccc([C@H](C)NC(=O)[C@@H]2C[C@@H](O)CN2C(=O)C(C(C)C)n2cc(N3CCCC4(CCN(c5ccc6cc(-c7ccccc7O)nnc6c5)CC4)C3)nn2)cc1 (stereo partly drawn) [Compound 251, (2S,4R)-4-hydroxy-1-(2-(4-(9-(3-(2-hydroxyphenyl)cinnolin-7-yl)-2,9-diazaspiro[5.5]undecan-2-yl)-1H-1,2,3-triazol-1-yl)-3-methylbutanoyl)-N-((S)-1-(4-(4-methylthiazol-5-yl)phenyl)ethyl)pyrrolidine-2-carboxamide] | > 75% | < 10 nM | A (“A” indicates maximum degradation ≥75%) | < 10 nM
